Test results taken from patent publication US20230270805A1, “A COMPOSITION COMPRISING AN EXTRACT OF ALDER TREE OR THE ISOLATED COMPOUNDS THEREFROM FOR TREATING AND PREVENTING SKELETON MUSCLE-RELATED DISORDER AND THE USE THEREOF” (Sookmyung Women's University Indusutry-Academic Cooperation …, priority 2020, published 2023).

Tests used:
Assay type in all cases: cell-based, mouse
C2C12 cells = test: Immunofluorescence staining (anti-MHC/DAPI) of multinucleated myotubes, myoblast differentiation
Method: (§1) Various concentrations of inventive extract (1, 10, 100 ng/ml) were treated to C2C12 cells (mouse myoblast cell line; Cat^#CRL-1771, ATCC) in differentiation medium (2% horse serum-containing DMEM, Cat^#11965-084, Gibco) for 3 days to induce their differentiation.
(§2) After removing respective differentiation medium, the differentiated myoblast cells in the differentiation medium were washed with phosphate buffer solution twice and fixed with 4% paraformaldehyde (0141, BBC Biochemical) for 20 mins. After washing the cells with phosphate buffer solution twice again, the cells were treated with 0.1% tritonX-100 (2315025, Sigma) for 20 mins. After washing the cells with phosphate buffer solution twice again, the cells were blocked with 5% horse serum solution (16050122, Gibco) and mouse anti-MHC (MAB4470, R&D systems) was added thereto to react for 12 hours at 4° C.
(§3) After finishing the reaction, the cells were washed with phosphate buffer solution more than 3 times and then the level of MHC expression was analyzed using by Alexa Flouor 568-conjuagted secondary anti-mouse (A-21144, MicoProbes) and DAPI (D9542, Sigma). The test result of immunofluorescence on MHC-positive myotubes was visualized with red color and the DAPI-labelled nucleus was visualized with blue color.
(§4) Various inventive compounds (10 nM) were treated to C2C12 cells (mouse myoblast cell line; Cat^#CRL-1771, ATCC) in differentiation medium (2% horse serum-containing DMEM, Cat^#11965-084, Gibco) for 3 days to induce their differentiation.
(§5) The change of MHC expression caused by inventive compound in myotube cell was determined by immunostaining method using by mouse anti-MHC and anti-mouse IgG2b Alexa-fluor 568 (See FIG. 7) (Chem. Biol. Interact. 2016, 248:60).
(§6) Various concentrations of inventive compound 1 (1, 10 and 100 nM) were treated to C2C12 cells (mouse myoblast cell line; Cat^#CRL-1771, ATCC) in differentiation medium (2% horse serum-containing DMEM, Cat^#11965-084, Gibco) for 3 days to induce their differentiation.

myoD = test: Western blot of myoD expression in differentiating C2C12 myoblasts; conditions: 3 days differentiation
Method: Various concentrations of inventive extract (1, 10, 100 ng/ml) were treated to C2C12 cells (mouse myoblast cell line; Ca^#CRL-1771, American Type Culture Collection (ATCC)) and cell lysates obtained from the differentiated cells, were subjected to Western Blot analysis to evaluate the expressed level of MHC and myoD proteins (The result was shown in FIG. 1A). the change of MHC expression caused by inventive extract in myotube cell was determined by immunostaining method using by mouse anti-MHC and anti-mouse IgG2b Alexa-fluor 568 (See FIG. 1B) (Chem. Biol. Interact. 2016, 248:60).
as §1
For Western blot analysis, about 3×10^4 mouse myoblast cell cells were incubated in 60 mm plates for 24 hours, and each sample was added to the differentiation medium for 3 days to differentiate. The protein extract was obtained from the differentiated cells using by lysis buffer [25 mM Tris-HCl (pH 7.5), 100 mM NaCl, 1% NP-40, 1% sodium deoxycholate, 0.1% sodium dodecyl sulfate (SDS), and protease inhibitor cocktail, Calbiochem, Darmstadt, Germany). […]
In order to investigate the myogenic effect of the inventive compound 1 obtained in Example, various concentrations of inventive compound 1 (1, 10 and 100 nM) were treated to C2C12 cells (mouse myoblast cell line; Cat^#CRL-1771, American Type Culture Collection (ATCC)) and cell lysates obtained from the differentiated cells, were subjected to Western Blot analysis to evaluate the expressed level of MHC and myoD proteins (The result was shown in FIG. 6). The change of MHC expression caused by inventive compound in myotube cell was determined by immunostaining method using by mouse anti-MHC and anti-mouse IgG2b Alexa-fluor 568 (See FIG. 7) (Chem. Biol. Interact. 2016, 248:60). […]

p38 MAPK = test: Western blot of phosphorylated p38 MAPK in differentiated myotubes; conditions: 3 days after differentiation
Method: Various concentrations of inventive extract (1, 10, 100 ng/ml) were treated to myoblast cells and the expressed level of p38 MAPK protein in the lysates of differentiated myotubes obtained at 3 days after the differentiation, was determined according to Western blot analysis.
Primary rabbit-anti phosphorylation p38 MAPK (Cat #9212, Cell Signaling Technology) was reacted with anti-rabbit secondary antibody (goat anti-rabbit IgG-HRP, sc-2004, SantaCruz) to determine the express level of phosphorylated p38 MAPK and primary rabbit-anti-p38 MAPK (Cat #9212, Cell Signaling Technology) was used to determine the expressed amount of total p38 MAPK (loading control)
Various concentrations of inventive compound 1 (1, 10, 100 nM) were treated to myoblast cells and the expressed level of p38 MAPK protein in the lysates of differentiated myotubes obtained at 3 days after the differentiation, was determined according to Western blot analysis.

[1] = tested on: C2C12 myotube cells treated with dexamethasone; test: Immunofluorescence staining of multinucleated MHC-positive myotubes after dexamethasone-induced muscle loss; conditions: dexamethasone (12 hours) + compound 10 nM; control group = 1
Method: as §2, §3
About 3×10^4 mouse myoblast cell cells (C2C12; CRL-1772 ATCC) were incubated in 60 mm plates for 24 hours, and various inventive compounds (10 nM) were added to the differentiation medium (0273, Gibco) for 3 days to differentiate.

MHC = test: Western blot of MHC expression in differentiating C2C12 myoblasts
Method: as §1
(§7) For Western blot analysis, about 3×10^4 mouse myoblast cell cells were incubated in 60 mm plates for 24 hours, and each sample was added to the differentiation medium for 3 days to differentiate. The protein extract was obtained from the differentiated cells using by lysis buffer [25 mM Tris-HCl (pH 7.5), 100 mM NaCl, 1% NP-40, 1% sodium deoxycholate, 0.1% sodium dodecyl sulfate (SDS), and protease inhibitor cocktail, Calbiochem, Darmstadt, Germany). The protein extract (25 μg) was performed to SDS-polyacrylamide gel electorphoresis (PAGE) and transferred to polyvinylidene fluoride (PVDF) membranes.
Primary mouse anti-MHC (sc-376157, Santa Cruz) or anti-myoD (sc-32758, Santa Cruz) was conjugated to the blots at 4° C., for 12 hrs and then conjugated with anti-mouse secondary antibody conjugated to Horseradish peroxidase (goat anti-mouse IgG-HRP, sc-2005, SantaCruz) to analyze the amount of MHC protein by chemiluminescence method. Pan-cadherin (Cat #3678, Sigma) was used as a loading control in the experiment.
as §4
as §7, with “electrophoresis” for “electorphoresis”
as §5, §6

[2] = compound 10 nM, 3 days differentiation (Experimental Example 3)
[3] = compound 10 nM, 3 days differentiation, control = 1 (Experimental Example 3)

| SMILES | The number of muscle fibers that are multinucleated with five or more nuclei and expressed with MHC (fold) (C2C12 cells; [2]) | The number of muscle fibers that are multinucleated with five or more nuclei and expressed with MHC (fold) (C2C12 cells; compound 1 at 1 nM (Experimental Example 4)) | The number of muscle fibers that are multinucleated with five or more nuclei and expressed with MHC (fold) (C2C12 cells; compound 1 at 10 nM (Experimental Example 4)) | The number of muscle fibers that are multinucleated with five or more nuclei and expressed with MHC (fold) (C2C12 cells; compound 1 at 100 nM (Experimental Example 4)) | myoD/pan-cadherin expression (fold) (myoD; compound 1 at 1 nM) | myoD/pan-cadherin expression (fold) (myoD; compound 1 at 10 nM) | myoD/pan-cadherin expression (fold) (myoD; compound 1 at 100 nM) | phosphorylated-p38/p38 expressed amount (fold) (p38 MAPK; compound 1 at 1 nM) | phosphorylated-p38/p38 expressed amount (fold) (p38 MAPK; compound 1 at 10 nM) | phosphorylated-p38/p38 expressed amount (fold) (p38 MAPK; compound 1 at 100 nM) | The number of muscle fibers that are multinucleated with five or more nuclei and expressed with MHC (fold) [1] [fold] | MHC/pan-cadherin expression (fold) (MHC; [3]) | MHC/pan-cadherin expression (fold) (MHC; compound 1 at 1 nM, 3 days differentiation (Experimental Example 4)) | MHC/pan-cadherin expression (fold) (MHC; compound 1 at 10 nM, 3 days differentiation (Experimental Example 4)) | MHC/pan-cadherin expression (fold) (MHC; compound 1 at 100 nM, 3 days differentiation (Experimental Example 4)) |
| --- | --- | --- | --- | --- | --- | --- | --- | --- | --- | --- | --- | --- | --- | --- | --- |
| COc1cc(/C=C/C(=O)OC[C@H](Cc2ccc(O)c(OC)c2)[C@H](COC(=O)/C=C/c2ccc(O)c(OC)c2)Cc2ccc(O)c(OC)c2)ccc1O [Compound 1, (−)-(2R,3R)-1,4-O-diferuloylsecoisolariciresinol] | 2.8 | 1.5 | 9.0 | 8.0 | 1.2 | 1.3 | 1.7 | 10.6 | 14.8 | 15.0 | 0.7 | 1.5 | 1.2 | 6.0 | 4.6 |
| O=C(CCc1ccc(O)c(O)c1)CC(O)CCc1ccc(O)c(O)c1 (stereo not drawn) [Compound 4, Hirsutanonol] | 3.1 |  |  |  |  |  |  |  |  |  | 0.7 | 1.9 |  |  |  |
